These results are taken from ChEMBL document CHEMBL1201862, “PubChem BioAssay data set” (2004).

The structures appear in SMILES notation.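 1) Cells in 96-well plates. 2) Compound, 48 h, 5 concentrations. 3) Linear interpolation between surrounding doses. 4) Unreached endpoint = highest concentration. The concentration for 50% growth inhibition is given as GI50.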 Active and inactive are the calls of the source. Rule as the data show it: active = GI50 up to about 1.1 µM and inactive = higher. Some results are limits rather than exact numbers.

Some test systems named below: A549; ACHN; HOP-62; Hs-578T; IGROV-1; K562; LOX IMVI; M14; MDA-MB-435; MDA-N; MOLT-4; NCI-H460; OVCAR-3; OVCAR-4; RPMI-8226; SK-MEL-28; SK-MEL-2; SNB-19; SW-620; U-251.
Common to all, as to assay: growth of human tumour cells (NCI), 48 h

On to `O=[N+]([O-])c1cccc2nc3ccccc3c(NCCCn3ccnc3[N+](=O)[O-])c12`, for which the GI50 in the experiment with A549 was 0.000122 µM (active); in the experiment on ACHN it was 0.000161 µM (active); in the experiment with HOP-62 it was 0.000785 µM (active); in the experiment with Hs-578T, 0.0169 µM (active); in the experiment on IGROV-1, 0.00389 µM (active); in the experiment with K562, < 0.0001 µM (active). For the same molecule, the GI50 in the experiment with LOX IMVI was 0.0158 µM (active); in the experiment with M14 it was < 0.0001 µM (active); in the experiment with MDA-MB-435, < 0.0001 µM (active); in the experiment on MDA-N it was < 0.0001 µM (active); in the experiment on MOLT-4, 0.000336 µM (active); in the experiment with NCI-H460, < 0.0001 µM (active). The GI50 is 0.00309 µM (active) in the experiment with OVCAR-3; 0.0104 µM (active) in the experiment on OVCAR-4; < 0.0001 µM (active) in the experiment with RPMI-8226; 0.00189 µM (active) in the experiment on SK-MEL-28; 0.000235 µM (active) in the experiment on SK-MEL-2; 0.000366 µM (active) in the experiment with SNB-19. The GI50 was < 0.0001 µM (active) with SW-620 and 0.000213 µM (active) in the experiment on U-251.
Take `ClCc1nn(-c2ccccc2)c(CCl)c1CCl`: the GI50 in the experiment with A549 was 7.66 µM (inactive); in the experiment with ACHN it was 2.96 µM (inactive); in the experiment with HOP-62, 15.8 µM (inactive); in the experiment on Hs-578T, 14.5 µM (inactive); with IGROV-1, 3.44 µM (inactive); in the experiment with K562 it was 2.54 µM (inactive). Also, the GI50 in the experiment with LOX IMVI is 1.47 µM (inactive); with M14, 3.3 µM (inactive); with MDA-MB-435, 2.41 µM (inactive); in the experiment on MDA-N, 2.88 µM (inactive); in the experiment with MOLT-4 it was 1.72 µM (inactive); in the experiment with NCI-H460, 2.66 µM (inactive). Also, the GI50 in the experiment with OVCAR-3 is 3.47 µM (inactive); in the experiment with OVCAR-4, 2.72 µM (inactive); in the experiment on RPMI-8226, 2.52 µM (inactive); in the experiment with SK-MEL-28, 5.32 µM (inactive); in the experiment with SK-MEL-2, 5.71 µM (inactive); in the experiment with SNB-19, 6.73 µM (inactive). For the same molecule, the GI50 is 2.55 µM (inactive) in the experiment on SW-620 and 2.35 µM (inactive) with U-251.
On to `Cc1cccc2oc3c(c(=O)c12)CC(O)C(C)(C)O3` (stereo not given), for which the GI50 in the experiment with A549, in the experiment with ACHN, with HOP-62, with Hs-578T, in the experiment on IGROV-1 and in the experiment on K562 was > 100 µM (inactive) throughout. The GI50 in the experiment on LOX IMVI was 86.5 µM (inactive); in the experiment on M14, > 100 µM (inactive); in the experiment with MDA-MB-435, > 100 µM (inactive); with MDA-N, > 100 µM (inactive); in the experiment with MOLT-4, 38.5 µM (inactive); in the experiment with NCI-H460 it was > 100 µM (inactive). Besides, the GI50 is 99.1 µM (inactive) in the experiment with OVCAR-3; > 100 µM (inactive) with OVCAR-4; 74.1 µM (inactive) with RPMI-8226; > 100 µM (inactive) with SK-MEL-28; > 100 µM (inactive) with SK-MEL-2; > 100 µM (inactive) with SNB-19. Also, the GI50 is 51.6 µM (inactive) with SW-620 and > 100 µM (inactive) in the experiment with U-251.
Turning to `CCN(CC)c1nc(N(C)C)c2cc(OC)ccc2n1`, the GI50 with A549 was 27.9 µM (inactive); with ACHN, 33 µM (inactive); in the experiment on HOP-62 it was 92.7 µM (inactive); in the experiment on Hs-578T, 31.2 µM (inactive); with IGROV-1, 30.8 µM (inactive); in the experiment on K562, 20.8 µM (inactive). The GI50 was 26.8 µM (inactive) with LOX IMVI; 22.7 µM (inactive) in the experiment with M14; 30.1 µM (inactive) with MDA-MB-435; 24.7 µM (inactive) in the experiment with MDA-N; 18.5 µM (inactive) in the experiment on MOLT-4; 20 µM (inactive) in the experiment on NCI-H460. For the same molecule, the GI50 is 35.6 µM (inactive) in the experiment with OVCAR-3; 43.6 µM (inactive) with OVCAR-4; 20.1 µM (inactive) in the experiment on RPMI-8226; 28.3 µM (inactive) with SK-MEL-28; 36.6 µM (inactive) in the experiment with SK-MEL-2; 48.6 µM (inactive) in the experiment on SNB-19. Besides, the GI50 with SW-620 was 24 µM (inactive); in the experiment with U-251, 27.5 µM (inactive).
As to `COc1ccc(/C(Br)=C2\OC(=O)c3ccccc32)cc1`, the GI50 in the experiment with A549, in the experiment with ACHN, in the experiment on HOP-62, in the experiment with Hs-578T, in the experiment with IGROV-1 and with K562 was > 10 µM (inactive) each time. Besides, the GI50 in the experiment with LOX IMVI, with M14, with MDA-MB-435, in the experiment on MDA-N, with MOLT-4 and in the experiment on NCI-H460 was > 10 µM (inactive) throughout. For the same molecule, the GI50 in the experiment on OVCAR-3, in the experiment with OVCAR-4, with RPMI-8226, in the experiment with SK-MEL-28, in the experiment with SK-MEL-2 and in the experiment with SNB-19 was > 10 µM (inactive) in each case. Besides, the GI50 with SW-620 and with U-251 was > 10 µM (inactive) in each case.
With `O=C(N/N=C\c1ccc([N+](=O)[O-])cc1)Nc1ccc2ccccc2c1`, the GI50 is 43.8 µM (inactive) in the experiment with A549; 51.5 µM (inactive) in the experiment with ACHN; 22.2 µM (inactive) in the experiment with HOP-62; 26 µM (inactive) in the experiment on Hs-578T; 26.1 µM (inactive) in the experiment on IGROV-1; 73.6 µM (inactive) in the experiment on K562. Moreover, the GI50 with LOX IMVI is 69.7 µM (inactive); with M14 it was 32.4 µM (inactive); in the experiment with MDA-MB-435, 34.2 µM (inactive); in the experiment on MDA-N, 40.7 µM (inactive); in the experiment on MOLT-4 it was > 100 µM (inactive); with NCI-H460, 18.5 µM (inactive). For the same molecule, the GI50 in the experiment on OVCAR-3 was > 100 µM (inactive); in the experiment on OVCAR-4 it was 21.5 µM (inactive); in the experiment on RPMI-8226, 52.8 µM (inactive); with SK-MEL-28, 46.5 µM (inactive); in the experiment with SK-MEL-2, > 100 µM (inactive); with SNB-19, 52.1 µM (inactive). For the same molecule, the GI50 in the experiment on SW-620 was 23.1 µM (inactive); in the experiment on U-251 it was 21.4 µM (inactive).
With `COc1cc(-c2cn(S(=O)(=O)c3ccc(C)cc3)c3ccccc23)nc(-c2cn(S(=O)(=O)c3ccc(C)cc3)c3ccccc23)n1`, the GI50 in the experiment with A549 was 0.473 µM (active); in the experiment on ACHN, 0.927 µM (active); with HOP-62, 1.84 µM (inactive); in the experiment with Hs-578T, 0.433 µM (active); in the experiment with IGROV-1, 0.728 µM (active); in the experiment with K562, 0.373 µM (active). Further, the GI50 in the experiment with LOX IMVI is 0.6 µM (active); with M14 it was 0.478 µM (active); in the experiment on MDA-MB-435, 0.18 µM (active); in the experiment on MDA-N, 0.441 µM (active); in the experiment with MOLT-4, 0.69 µM (active); in the experiment with NCI-H460 it was 0.388 µM (active). The GI50 in the experiment with OVCAR-3 was 0.586 µM (active); with OVCAR-4, 1.99 µM (inactive); in the experiment with RPMI-8226, 0.375 µM (active); with SK-MEL-28, 23.3 µM (inactive); in the experiment with SK-MEL-2, 0.984 µM (active); in the experiment on SNB-19, 0.54 µM (active). In addition, the GI50 in the experiment with SW-620 was 2.9 µM (inactive); in the experiment with U-251, 0.354 µM (active).
